Measurements as given in patent US20250345329A1, “HETEROARYL DERIVATIVE COMPOUND AND USES THEREOF” (VORONOI, INC., priority 2022, published 2025).

System: Ba/F3 expressing EGFR Del19/T790M/C797S mutations
Assay: Inhibitory activity on proliferation of Ba/F3 cell overexpressing EGFR C797S (Cell Titer-Glo)
Format: cell-based
Details: Mus musculus, BaF3; 72 hours treatment, cell growth rate vs control; read-out: Ba/F3 (EGFR DTC) GI50
Procedure: <Experimental Example 2> Evaluation of Inhibitory Activity on Proliferation of Ba/F3 Cell Overexpressing EGFR C797S
The following experiments were performed to evaluate the inhibitory activity of the compounds according to the present invention on the proliferation of Ba/F3 expressing EGFR Del19/T790M/C797S mutations.
Ba/F3 cells were cultured in RPMI-1640 medium supplemented with 10% fetal bovine serum (FBS), and 3000 cells were seeded into each well of a white clear bottom 96 well plate (Corning) 24 hours prior to compound treatment. The compounds were diluted in dimethyl sulfoxide (3-fold dilution, total of 12 concentrations) and injected at 1 μl each so that the final concentration was […] to 5 μM. After 72 hours post treatment with compounds, living cells were reacted in a 37° C., CO2 incubator for […], followed by 10 minutes at room temperature using Cell Titer-Glo luminescent cell-viability reagent (Promega), and the luminescence intensity thereof was measured using a reader (SynergyNeo2, Biotek). The result values were calculated as a cell growth rate (%) compared to the control group. GI50 values were calculated using the GraphPad Prism version 8.4.3 (GraphPad software Inc., San Diego) program.

Row | GI50 [nM] | Compound
1 | 500 to 5000 | CC(=O)c1cc(-c2nccc(Nc3cc(NC(C)C)c(C(=O)N4C[C@H](CS(C)(=O)=O)[C@H]4C)cn3)n2)ccc1O [Example 134, 1-(2-hydroxy-5-(4-((4-(isopropylamino)-5-((2R,3S)-2-methyl-3-((methylsulfonyl)meth-yl)azetidine-1-carbonyl)pyridin-2-yl)amino)pyrimidin-2-yl)phenyl)ethan-1-one]
2 | < 500 | CC(C)Nc1cc(Nc2ccnc(-c3cnn(S(=O)(=O)C4CC4)c3)n2)ncc1C(=O)NC[C@@H](F)C(C)(C)O [Example 132, (R)-6-((2-(1-(cyclopropylsulfonyl)-1H-pyrazol-4-yl)pyrimidin-4-yl)amino)-N-(2-fluoro-3-hydroxy-3-methylbutyl)-4-(isopropylamino)nico-tinamide]
3 | 500 to 5000 | Cc1cc2cc(n1)-c1cnn(C)c1OCC[C@H](C)Nc1cc(ncc1C(=O)NCCC(F)(F)F)N2 [Example 124, (S)-1^1,2^6,6-trimethyl-N-(3,3,3-trifluoropropyl)-1^1H-9-oxa-3,5-diaza-2,4(2,4)-dipyridina-1(4,5)-pyrazolacyclo-nonaphane-4^5-carboxamide]
4 | < 500 | C[C@H]1CCOc2c(cnn2C)-c2nccc(n2)Nc2cc(c(C(=O)Nc3cc(N4CCN(C)CC4)cc(N(C)S(C)(=O)=O)c3)cn2)N1 [Example 114, (S)-1^1,6-dimethyl-N-(3-(N-methyl-methylsulfonami-do)-5-(4-methylpiperazin-1-yl)phenyl)-1^1H-9-oxa-3,5-diaza-2(2,4)-pyrimidina-4(2,4)-pyridina-1(4,5)-pyrazolacyclo-nonaphane-4^5-carboxamide]
5 | < 500 | CC(C)Nc1cc(Nc2ccnc(-c3cnn(S(=O)(=O)C4CC4)c3)n2)ncc1C(=O)N1CC(CS(=O)(=O)C(C)C)C1 [Example 130, (6-((2-(1-(cyclopropylsulfonyl)-1H-pyrazol-4-yl)pyrimidin-4-yl)amino)-4-(isopropylamino)pyri-din-3-yl)(3-((isopropylsulfonyl)methyl)azetidin-1-yl)methanone]
6 | < 500 | CC(C)S(=O)(=O)CC1CN(C(=O)c2cnc3cc2N[C@@H](C)CCOc2c(cnn2C)-c2nccc(n2)N3)C1 [Example 121, (S)-(1^1,6-methyl-1^1H-9-oxa-3,5-diaza-2(2,4)-pyrimidina-4(2,4)-pyridina-1(4,5)-pyrazolacyclo-nonaphane-4^5-yl)(3-((isopropylsulfonyl)methyl)azetidin-1-yl)methanone]
7 | 500 to 5000 | CO[C@@H]1CCN(c2nccc(Nc3cc(NC(C)C)c(C(=O)N4CC(CS(=O)(=O)C(C)C)C4)cn3)n2)C[C@@H]1F [Example 131, (6-((2-(cis-3-fluoro-4-methoxypiperidin-1-yl)pyrimidin-4-yl)amino)-4-(isopropylamino)pyri-din-3-yl)(3-((isopropylsulfonyl)methyl)azetidin-1-yl)methanone]
8 | < 500 | C[C@H]1CCOc2c(cnn2C)-c2cc(ccn2)Nc2cc(c(C(=O)NCCC(F)(F)F)cn2)N1 [Example 123, (S)-1^1,6-dimethyl-N-(3,3,3-trifluoropropyl)-1^1H-9-oxa-3,5-diaza-2,4(2,4)-dipyridina-1(4,5)-pyrazolacyclo-nonaphane-4^5-carboxamide]
9 | 500 to 5000 | C[C@H]1CCOc2c(cnn2C)-c2nccc(n2)Nc2cc(c(C(=O)Nc3cccc(CS(C)(=O)=O)c3)cn2)N1 [Example 125, (S)-1^1,6-dimethyl-N-(3-((methyl-sulfonyl)meth-yl)phenyl)-1^1H-9-oxa-3,5-diaza-2(2,4)-pyrimidina-4(2,4)-pyridina-1(4,5)-pyrazolacyclo-nonaphane-4^5-carboxamide]
10 | 500 to 5000 | CC(C)Nc1cc(Nc2ccnc(-c3ccc(O)c(C=O)c3)n2)ncc1C(=O)N1C[C@H](CS(C)(=O)=O)[C@H]1C [Example 133, 2-hydroxy-5-(4-((4-(isopropylamino)-5-((2R,3S)-2-methyl-3-((methyl-sulfonyl)meth-yl)azetidine-1-carbonyl)pyridin-2-yl)amino)pyrimidin-2-yl)benzaldehyde]

The remaining lines, values behind:

Row | Compound | GI50 [nM]
11 | CO[C@H]1CCN(c2nccc(Nc3cc(NC(C)C)c(C(=O)NCC4CCCC4)cn3)n2)C[C@H]1F [Example 91, N-(cyclopentylmethyl)-6-((2-(cis-3-fluoro-4-methoxypiperidin-1-yl)pyrimidin-4-yl)amino)-4-(isopropylamino)nico-tinamide] | 500 to 5000
12 | CO[C@H]1CCN(c2cc(Nc3ncc(C(=O)NCCS(C)(=O)=O)c(NC(C)C)n3)ccn2)C[C@H]1F [Example 95, 2-((2-((3R,4S)-3-fluoro-4-methoxypiperidin-1-yl)pyridin-4-yl)amino)-4-(isopropylamino)-N-(2-(methylsulfonyl)ethyl) pyrimidin-5-carboxamide] | 500 to 5000
13 | CC(C)Nc1cc(Nc2ccnc(-c3cnn(C(=O)C4CC4)c3)n2)ncc1C(=O)NCC#N [Example 87, N-(cyanomethyl)-6-((2-(1-(cyclo-propanecarbonyl)-1H-pyrazol-4-yl)pyrimidin-4-yl)amino)-4-(isopropylamino)nico-tinamide] | 500 to 5000
14 | CO[C@H]1CCN(c2nccc(Nc3cc(NC(C)C)c(C(=O)Nc4cc(N5CCN(C)CC5)cc(C(F)(F)F)c4)cn3)n2)C[C@H]1F [Example 24, 6-((2-(cis-3-fluoro-4-methoxypiperidin-1-yl)pyrimidin-4-yl)amino)-4-(isopropylamino)-N-(3-(4-methylpiperazin-1-yl)-5-(trifluoromethyl)phe-nyl)nicotinamide] | 500 to 5000
15 | COCCN(C)C(=O)c1cnc(Nc2ccnc(-c3cnn(S(=O)(=O)C4CC4)c3)n2)cc1NC(C)C [Example 27, 6-((2-(1-(cyclopropylsulfonyl)-1H-pyrazol-4-yl)pyrimidin-4-yl)amino)-4-(isopropylamino)-N-(2-methoxyethyl)-N-methylnicotinamide] | 500 to 5000
16 | CO[C@H]1CCN(c2nccc(Nc3cc(NC(C)C)c(C(=O)NCCS(C)(=O)=O)cn3)n2)C[C@H]1F [Example 94, 6-((2-((3R,4S)-3-fluoro-4-methoxypiperidin-1-yl)pyrimidin-4-yl)amino)-4-(isopropylamino)-N-(2-(methylsulfonyl)ethyl) nicotinamide] | 500 to 5000
17 | COCCN(C)C(=O)c1cnc(Nc2ccnc(N3CC[C@H](OC)[C@H](F)C3)n2)cc1NC(C)C (relative stereo) [Example 30, 6-((2-(cis-3-fluoro-4-methoxypiperidin-1-yl)pyrimidin-4-yl)amino)-4-(isopropylamino)-N-(2-methoxyethyl)-N-methylnicotinamide] | 500 to 5000
18 | CO[C@H]1CCN(c2nccc(Nc3cc(NC(C)C)c(C(=O)N(C)CCN(C)C)cn3)n2)C[C@H]1F (relative stereo) [Example 29, N-(2-(dimethylamino)ethyl)-6-((2-(cis-3-fluoro-4-methoxypiperidin-1-yl)pyrimidin-4-yl)amino)-4-(isopropylamino)-N-methylnicotinamide] | 500 to 5000
19 | CO[C@H]1CCN(c2cc(Nc3ncc(C(=O)NCCCC(F)(F)F)c(NC(C)C)n3)ccn2)C[C@H]1F [Example 93, 2-((2-((3R,4S)-3-fluoro-4-methoxypiperidin-1-yl)pyridin-4-yl)amino)-4-(isopropylamino)-N-(4,4,4-trifluorobutyl)pyrimi-dine-5-carboxamide] | 500 to 5000
20 | C[C@H]1CCOc2c(cnn2C)-c2nccc(n2)Nc2cc(c(C(=O)NCCCC(F)(F)F)cn2)N1 [Example 88, (S)-1^1,6-dimethyl-N-(4,4,4-trifluorobutyl)-1^1H-9-oxa-3,5-diaza-2(2,4)-pyrimidina-4(2,4)-pyridina-1(4,5)-pyrazolacyclo-nonaphane-4^5-carboxamide] | < 500
21 | C[C@H]1CCOc2c(cnn2C)-c2nccc(n2)Nc2cc(c(C(=O)NCCC(F)(F)F)cn2)N1 [Example 89, (S)-1^1,6-dimethyl-N-(3,3,3-trifluoropropyl)-1^1H-9-oxa-3,5-diaza-2(2,4)-pyrimidina-4(2,4)-pyridina-1(4,5)-pyrazolacyclo-nonaphane-4^5-carboxamide] | < 500
22 | CO[C@H]1CCN(c2nccc(Nc3cc(NC(C)C)c(C(=O)Nc4cnn(S(=O)(=O)C5CC5)c4)cn3)n2)C[C@H]1F [Example 33, N-(1-(cyclopropylsulfonyl)-1H-pyrazol-4-yl)-6-((2-(cis-3-fluoro-4-methoxypiperidin-1-yl)pyrimidin-4-yl)amino)-4-(isopropylamino)nico-tinamide] | 500 to 5000
23 | C[C@H]1CCOc2c(cnn2C)-c2nccc(n2)Nc2cc(c(C(=O)NCC(F)(F)C(F)(F)F)cn2)N1 [Example 103, (S)-1^1,6-dimethyl-N-(2,2,3,3,3-pentafluoropropyl)-1^1H-9-oxa-3,5-diaza-2(2,4)-pyrimidina-4(2,4)-pyridina-1(4.,5)-pyrazolacyclo-nonaphane-4^5-carboxamide] | < 500
24 | CC(C)Nc1nc(Nc2ccnc(-c3cnn(S(=O)(=O)C4CC4)c3)c2)ncc1C(=O)NCCCC(F)(F)F [Example 92, 2-((2-(1-(cyclopropylsulfonyl)-1H-pyrazol-4-yl)pyridin-4-yl)amino)-4-(isopropylamino)-N-(4,4,4-trifluorobutyl)pyrimi-din-5-carboxamide] | 500 to 5000
